This note sets out measurements from the METLIN SMRT retention time set (Domingo-Almenara et al. 2019).

The data set can be described thus: gradient 5% acetonitrile 3 min, to 50% in 2 min, to 85% in 15 min, held 3 min, 100 µL/min. As to conditions: column: Zorbax Extend-C18 2.1 x 50 mm; eluents: water / acetonitrile, 0.1% formic acid. In outline:
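Mixtures of ~100 pure standards were chromatographed on a Zorbax Extend-C18 column (2.1 × 50 mm, 1.8 μm) at 100 μL/min using water and acetonitrile, each with 0.1% formic acid. Detection used a quadrupole time-of-flight mass spectrometer in positive and negative ionization mode, and data collection spanned 3 months. Retention time was obtained from adduct peaks picked computationally and each checked manually.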
Molecule `CCn1c(CN2CCN(S(C)(=O)=O)CC2)nc2cc(NC(C)=O)ccc21` returned an RP-LC retention time of 588 s. The molecule `O=C(NC1CCCCC1)N1CCCCC1c1nncn1CC1CC1` (configuration not stated) yielded an RP-LC retention time of 704 s. Turning to `Cn1c(C2CCN(C(=O)Nc3ccc(F)cc3)CC2)cc(=O)n2nccc12`, the RP-LC retention time amounted to 615 s. Take `O=C(NCc1ccccc1)N1CCN(c2ncccc2-c2nnc(C3CC3)o2)CC1`: the RP-LC retention time amounted to 738 s. The same measure for `CCOc1ccc(NC(=O)C2CCN(S(=O)(=O)c3cc(-c4noc(C)n4)cs3)CC2)cc1`: 917 s. In the case of `Cc1ccccc1-c1noc(C2CC(=O)N(c3ccc(Cl)cc3)C2)n1` (configuration not stated), the RP-LC retention time was determined as 1090 s. In turn, `COc1ccc(NC(=O)CN2CCc3[nH]c4c(C)c(C)ccc4c(=O)c3C2)c(OC)c1` had an RP-LC retention time of 626 s.

Molecule `CC1=C(c2ccccc2)S(=O)(=O)N=C1N1CCCN(C(=O)c2ccoc2)CC1` displayed an RP-LC retention time of 728 s. The result for `O=C([C@@H]1C[C@H](Oc2cccnc2)CN1C(=O)C1CCCC1)N1CCCC1` reads 577 s; that for `Cc1cc(F)ccc1NS(=O)(=O)c1cc2n(c1)CCN(C(C)C)C2=O`, 773 s. The molecule `CCc1nc2c(c(=O)n1CC(=O)Nc1cccc(OC)c1)CN(Cc1ccccc1)CC2` showed an RP-LC retention time of 652 s. The result for `N#Cc1ccsc1NC(=O)C1CCN(S(=O)(=O)c2ccc(Cl)s2)CC1` reads 906 s; that for `COCCc1nc(C2CCCN(C(=O)c3sccc3C)C2)n[nH]1` (configuration not stated), 590 s. As to `CCC(NC(=O)c1cn(C)c2ncccc12)c1cccs1` (configuration not stated), the RP-LC retention time worked out at 800 s. As for `CCOC(=O)c1[nH]c(C)c(CCC(=O)N2CCC(C(=O)NCCc3ccccc3OC)CC2)c1C`, the RP-LC retention time was 812 s. The same measure for `Cc1nn(-c2ccc(N3CCCC3)nn2)c(C)c1CCC(=O)N1CCN(c2ncccn2)CC1`: 605 s; for `Cn1c(N2CCCN(C(=O)c3ccc(F)c(F)c3)CC2)cc(=O)n(C)c1=O`: 660 s.

In turn, `COc1ccccc1-c1csc(NC(=O)c2sc(COc3cccc(C)c3)nc2C)n1` came in with an RP-LC retention time of 1250 s. Turning to `Cc1nc(-c2ccc(C(=O)N(C)C)c(F)c2)no1`, the RP-LC retention time was determined as 693 s.

For the molecule `CCOC(=O)c1ccc(N2C(=O)c3n[nH]c(C)c3C2c2ccc(OC)cc2OC)cc1` (configuration not stated), the RP-LC retention time stood at 878 s. `Cc1nn2c(S(=O)(=O)NCC3CC3)c(C)nc2s1` gave an RP-LC retention time of 690 s. In turn, `CCCN1CCN(c2cc(C(=O)O)c3cc(NC(=O)c4cccc(Cl)c4)ccc3n2)CC1` returned an RP-LC retention time of 654 s. The same measure for `CCc1nc(-c2csc(S(=O)(=O)N3CCCC(C(=O)NCc4cc(C)ccc4C)C3)c2)no1` (configuration not stated): 1080 s. In turn, `O=C(Cc1ccc(Cl)cc1)Nc1ccc(N2CCN(C3CCCC3)C2=O)nc1` displayed an RP-LC retention time of 834 s. In turn, `Cc1cccc(S(=O)(=O)Nc2ccc(C3(C(=O)NCC4CCCO4)CC3)cc2)c1` (configuration not stated) yielded an RP-LC retention time of 828 s. The same measure for `CC(=O)N1CCc2sc(S(=O)(=O)N3CCN(c4cccc(C)c4C)CC3)cc2C1`: 1030 s; for `N#Cc1ccc(C(=O)N2CCN(c3cc(-c4ccc(Cl)cc4)[nH]n3)CC2)cc1`: 826 s. `Cc1c(C(=O)Nc2ccccc2)cnc2nc(-c3ccncc3)nn12`: the RP-LC retention time was determined as 594 s. `Cn1c(=O)n([C@@H]2CCN(C(=O)CCc3nc4ccccc4s3)C2)c2ncccc21` returned an RP-LC retention time of 733 s. `CCNC(=O)c1nc(C(=O)NC(C)C)cs1` displayed an RP-LC retention time of 656 s. `COCCN1C(=O)CCc2cc(NS(=O)(=O)c3cccs3)ccc21` registered an RP-LC retention time of 706 s.

On to `COc1ccc(C(=O)N2CCc3cc(-c4csc(C5CC5)n4)ccc32)cn1`, for which the RP-LC retention time came to 1070 s.
